Laboratory results published in patent US5962013A, “Monolithic matrix transdermal delivery system for administering molsidomine” (priority 1998, dated 1999).
Like-named read-outs stand apart in the source and are kept apart here. Values belong to the molecule of their own block, whether it stands above or below them.

Assays:
[1] = cited from earlier work
[2] = administered orally; cited from earlier work
Rhesus monkeys = conditions: cited from earlier work
[3] = cited from earlier work; remark: listed apart in the source
[4] = cited from earlier work; remark: listed apart in the source
[5] = cited from earlier work; remark: listed apart in the source
[6] = in vivo
Procedure: It is necessary to combine both the oral dose and the pharmacokinetics data to estimate the target flux of ketorolac. For an oral dosage regimen of ketorolac tromethamine, it is recommended that 10 mg be given every 6 hours as needed for short-term management of moderate to severe pain.

rats = conditions: rat, not told; cited from earlier work
[7] = system: patients with coronary heart disease; conditions: single oral dose of 2 mg; cited from earlier work
[8] = oral doses; cited from earlier work
[9] = cited from earlier work; remark: listed apart in the source
[10] = cited from earlier work; for Solubilities: saturated
[11] = in vitro skin flux of ketorolac; conditions: Table 5
Procedure: Generally, the protocol was as follows.
Human cadaver epidermis was removed carefully from dermatoned full thickness skin after the skin had been heated in deionized water at 60° C. for one to two minutes. The stripped epidermis was placed between two polyethylene plastic sheets and refrigerated at -20° C. until use. Discs of the epidermis having a diameter of 5/8" were punched out with a die and tested for leakage by soaking the epidermis in water, then spreading it flat on a plastic sheet, and pressing the top of the epidermis lightly a few times with a piece of laboratory tissue. Leakage of the epidermis was detected by appearance of wet spots on the tissue.
Epidermis discs proving to be free of leaks were placed on top of a receiver cell of a modified Franz vertical diffusion cell assembly, and a donor cell was placed on top of the receiver cell. A small magnetic stir bar was inserted through the sampling port into the donor cell compartment. The diffusion cell assemblies were clamped together and transferred to a skin permeation room (controlled at 32° C.) The receiver cell compartments were filled with 8.0 ml of isotonic phosphate buffer, pH 7.0. […]
The quantity of ketorolac tromethamine in each sample was assayed by HPLC analytical methods.

coronary strips = conditions: vasodilation; cited from earlier work

Structure (SMILES): O=C(c1ccccc1)c1ccc2n1CC[C@@H]2C(=O)O [(-)-S isomer]
analgesic potency relative to (+)-R isomer ([1]; A. Guzman et al., 1986): many times greater analgesic potency

Structure (SMILES): O=C(c1ccccc1)c1ccc2n1CCC2C(=O)O (centres unmarked) [Ketorolac tromethamine]
anti-inflammatory potency relative to indomethacin or naproxen [2]: 2-3 times
estimated in vivo skin flux (Rhesus monkeys; rhesus monkey): very high
Solubilities ([3]; PG (50%), Oleic acid (50%)): 110 mg/mL
Solubilities ([3]; propylene glycol (PG)): 200 mg/mL
Solubilities ([3]; water): 725 mg/mL
volume of distribution ([4]; in vivo): 7.7 lit/70 kg
oral bioavailability ([4]; oral): 80-100%
shelf-life ([5]; aqueous solutions pH 4-8, 25° C.): very long shelf-life
aqueous solubility relative to ketorolac [5]: greater aqueous solubility than ketorolac
light sensitivity ([5]; decarboxylation, especially in the presence of oxygen): light sensitive
stability in aqueous solutions ([5]; pH 4-8): extremely stable
analgesic potency relative to aspirin ([1]; administered orally): about 180 times
analgesic potency relative to indomethacin ([1]; administered orally): 3-6 times
analgesic potency relative to naproxen ([1]; administered orally): 25-50 times

amount to be delivered during a 24 hour period [6]: 12.5 to 19.2 mg
Structure (SMILES): O=C(c1ccccc1)c1ccc2n1CCC2C(=O)O (centres unmarked) [Ketorolac]
time to high Cmax (Rhesus monkeys; percutaneous, solution formulations): ≤ 8 h
enhancement of percutaneous absorption by propylene glycol and linoleic acid, or propylene glycol and oleic acid (Rhesus monkeys; solution formulations): effective
total clearance ([4]; in vivo): 1750 ml/hr/70 kg
plasma concentration at 6 hour ([4]; oral administration of 10 mg, 6 hour): 200 to 300 ng/mL
Cmax ([4]; oral administration of 10 mg): about 0.8 μg/ml

Structure (SMILES): CCOC(=O)[N-]c1cn(N2CCOCC2)n[o+]1 [Molsidomine, N-5-ethoxycarbonyl-3-morpholinosydnonimine]
estimated flux (rats): ~399 μg/hr-cm^2
duration of anti-anginal effects [7]: 3 to 5 h
bioavailability [8]: 44%
pKa ([9]; 25° C.): 3.34
t90 ([9]; pH 5-7, 20° C.): 2.6 years
solubility ([10]; CHCl3): freely soluble
Solubilities ([10]; Glycerin, 25° C.): 1.80%
Solubilities ([10]; Glycol salicylate, 25° C.): 15.1%
Solubilities ([10]; Isopropyl myristate, 25° C.): 0.09%
Solubilities ([10]; Octyl.decyl oil, 25° C.): 0.36%
Solubilities ([10]; Oleic Acid, 25° C.): 1.37%
Solubilities ([10]; PEG 400, 25° C.): 5.23%
Solubilities ([10]; Propylene glycol, 25° C.): 6.37%
solubility ([10]; dilute HCl, ethanol, ethyl acetate, methanol): soluble
solubility ([10]; ether, petroleum ether): very slightly soluble
solubility ([10]; propylene glycol and a variety of organic solvents): soluble
solubility ([10]; water, acetone, benzene): sparingly soluble

Structure (SMILES): CC(O)CO (centres unmarked) [PG, propylene glycol]
Effect on skin flux (factorial design) [11]: 8.72

Structure (SMILES): N#CCN(N=O)N1CCOCC1 [SIN-1A]
dependence of activity on cysteine (coronary strips): active in both the presence and the absence of cysteine

Structure (SMILES): O=[N+]([O-])OCC(CO[N+](=O)[O-])O[N+](=O)[O-] [nitroglycerin]
dependence of activity on cysteine (coronary strips): depends on the presence of cysteine
